Results reported in patent US7220420B2, “Hepatitis C virus-derived peptides capable of inducing cytotoxic T lymphocyte responses” (The Scripps Research Institute, priority 1994, dated 2007).
Where two headings read alike, the source gives them in different places. No end group written: not given here.

Tests used:
[1] = test system: peptide-pulsed HLA-A2 matched JY EBV-BCL cells
[2] = test system: peptide pulsed HLA-A2 matched JY EBV-BCL target cells; type: cell-based, human

Compound: LLCPAGHAV [SEQ ID NO:26, HCV-1 NS3 aa 1169–1177]
- lysis of target cells by peptide specific CTL lines (FIG. 2) ([1]; subject C-3, lines four weeks in culture, varying effector/target cell ratio): recognize and lyse HLA A2-matched EBV-BCL in a dose dependent fashion
- represents a CTL epitope (dagger mark) ([2]; panel of 53 peptides, assay of Example 2): LLCPAGHAV^†

Compound: CC(C)C[C@H](NC(=O)[C@H](C)NC(=O)[C@H](CC(C)C)NC(=O)[C@@H](N)CC(C)C)C(=O)N[C@@H](CC(C)C)C(=O)N[C@@H](CO)C(=O)N[C@@H](CS)C(=O)N[C@@H](CC(C)C)C(=O)N[C@H](C(=O)N[C@H](C(=O)O)C(C)C)[C@@H](C)O [SEQ ID NO:2]
- peptide specific cytotoxic activity % ([1]; subject C-2, 2 weeks, E/T 80): 29%
- peptide specific cytotoxic activity % ([1]; subject C-2, 3 weeks, E/T 25): 37%
- peptide specific cytotoxic activity % ([1]; subject C-2, 4 weeks, E/T 7): 33%
- peptide specific cytotoxic activity % ([1]; subject C-2, 4 weeks, E/T 21): 64%
- peptide specific cytotoxic activity % ([1]; subject C-2, 4 weeks, E/T 64): 81%
- peptide specific cytotoxic activity % ([1]; subject C-2, 5 weeks, E/T 2): 24%
- peptide specific cytotoxic activity % ([1]; subject C-2, 5 weeks, E/T 6): 57%
- peptide specific cytotoxic activity % ([1]; subject C-2, 5 weeks, E/T 18): 60%
- peptide specific cytotoxic activity % ([1]; subject C-3, 2 weeks, E/T 80): 19%
- peptide specific cytotoxic activity % ([1]; subject C-3, 3 weeks, E/T 40): 18%
- peptide specific cytotoxic activity % ([1]; subject C-3, 4 weeks, E/T 4): 20%
- peptide specific cytotoxic activity % ([1]; subject C-3, 4 weeks, E/T 11): 37%
- peptide specific cytotoxic activity % ([1]; subject C-3, 4 weeks, E/T 33): 60%
- peptide specific cytotoxic activity % ([1]; subject C-3, 5 weeks, E/T 3): 35%
- peptide specific cytotoxic activity % ([1]; subject C-3, 5 weeks, E/T 10): 52%
- peptide specific cytotoxic activity % ([1]; subject C-3, 5 weeks, E/T 30): 76%

Compound: ILDSFDPLV [SEQ ID NO:42]
- peptide specific cytotoxic activity % ([1]; subject C-2, Exp I, 2 weeks, E/T 40): 29%
- peptide specific cytotoxic activity % ([1]; subject C-2, Exp II (PBMC collected two months after Exp I), 2 weeks, E/T 40): 2%
- peptide specific cytotoxic activity % ([1]; subject C-2, Exp II, 3 weeks, E/T 25): 3%
- peptide specific cytotoxic activity % ([1]; subject C-2, Exp II, 4 weeks, E/T 10): 10%
- peptide specific cytotoxic activity % ([1]; subject C-2, Exp II, 4 weeks, E/T 29): 29%
- peptide specific cytotoxic activity % ([1]; subject C-2, Exp II, 4 weeks, E/T 88): 59%
- peptide specific cytotoxic activity % ([1]; subject C-2, Exp II, 5 weeks, E/T 6): 20%
- peptide specific cytotoxic activity % ([1]; subject C-2, Exp II, 5 weeks, E/T 19): 52%
- peptide specific cytotoxic activity % ([1]; subject C-2, Exp II, 5 weeks, E/T 56): 83%

Compound: LLFNILGGWV [SEQ ID NO:35]
- represents a CTL epitope (dagger mark) [2]: LLFNILGGWV^†
